Assay results from patent publication US20230082968A1, “EXOGENOUS NITRIC OXIDE FOR IMPROVED SUSCEPTIBILITY AND LOWERED ANTIBIOTIC RESISTANCE IN RESISTANT RESPIRATORY BACTERIA” (The University of North Carolina at Chapel Hill, priority 2020, published 2023).
Values after ≈ are worked out from the molar mass of the structure shown.

Tests used:
[1] = tested on: AR 542; assay: Nitric oxide pretreatment with planktonic bacteria; assay type: cell-based, Klebsiella pneumoniae
Description: (§1) After exposure, wells were serially diluted in sterile MilliQ water and spiral plated on TSA. Viability was assessed by colony counting.

[2] = tested on: PAK; assay: Serial passaging resistance assay; assay type: cell-based, Pseudomonas aeruginosa
Description: (§2) Bacteria at a final concentration of 10^6 CFU/mL in TSB were incubated with serial dilutions of COS/NO and/or tobramycin for 24 h. Growth was assessed by measuring absorbance at 600 nm. The wells that had the highest concentration of test agent and an OD600 corresponding to more than 10^8 CFU/mL were diluted to 10^6 cfu/mL in TSB and incubated with fresh solutions of COS/NO or tobramycin for 24 h. A single passage was defined as one exposure, incubation, and subsequent dilution. Bacteria were passaged for up to 70 days.

[3] = tested on: ATCC MRSA; assay: Serial passaging resistance assay; assay type: cell-based, Methicillin-resistant S. aureus
Description: as §2

[4] = tested on: PAK; assay: Nitric oxide pretreatment with planktonic bacteria; assay type: cell-based, Pseudomonas aeruginosa; conditions: antibiotic 2 µg/mL, NO-pretreatment 25% MIC 4 h
Description: as §1

[5] = tested on: PAK biofilm; assay: Biofilm pretreatment with nitric oxide; assay type: cell-based, Pseudomonas aeruginosa
Description: Bacteria were cultured to a concentration of 10^8 CFU/mL in TSB and diluted to 10^6 CFU/mL in 200 µL TSB in a 96 well plate. Plates were incubated with shaking for 3 days until a non-surface attached viscous aggregate formed that was easily separated from growth medium. Biofilms (100 µL) were removed, gently injected into PBS (200 µL) to remove loosely adhered planktonic cells, and added to a sterile 96 well plate. To the wells, PBS or test agent dissolved in PBS (100 µL) was added and incubated with shaking for 24 h. The biofilm (100 µL) was removed from the well plate, added to 900 µL sterile MilliQ water, and disrupted with pipetting and vortexing. Disrupted biofilms were serially diluted and spiral plated on TSA. Viability was assessed with colony counting. The minimum biofilm eradication concentration (MBEC) was defined as the lowest concentration of test agent required to reduce viability by 5-log (i.e., 10^8 to 10^3 CFU/mL).
The biofilm was then removed from its 96 well plate, added to a new 96 well plate containing tobramycin dissolved in PBS (100 µL), and incubated for 20 h. The biofilm was disrupted in 900 µL sterile MilliQ water with pipetting and vortexing, serially diluted, and spiral plated on TSA. Viability was assessed with colony counting.

[6] = AR 542, antibiotic 500 µg/mL, NO-pretreatment 25% MIC 4 h
[7] = tobramycin 16 µg/mL, NO-pretreatment 4 h

NC[C@H]1O[C@H](O[C@H]2[C@H](O)[C@@H](O[C@H]3O[C@H](CO)[C@@H](O)[C@H](N)[C@H]3O)[C@H](N)C[C@@H]2N)[C@H](N)C[C@@H]1O [Tobramycin]
Classification [1, 6]: Synergistic
Log Difference in bacteria viability with vs without NO-pretreatment [1, 6]: 2.29 log
tobramycin-susceptibility with the addition of NO ([1]; K. pneumoniae AR 542, NO-pretreatment): significant improvement
development of tobramycin-resistance ([2]; P. aeruginosa, concomitant delivery with COS/NO at 25% of its MIC): slowing or prevention
change of tobramycin MIC on parallel exposures ([2]; P. aeruginosa, tobramycin alone, serial passages): increases
MICn ([2]; PAK, after n = 10 passages): 16 µg/mL
MIC ([2]; Pseudomonas aeruginosa, read-out: MIC0): 2 µg/mL (≈ 4.28 µM)
MICn ([3]; ATCC MRSA, after n = 10 passages): 16000 µg/mL
development of tobramycin-resistance ([3]; MRSA, concomitant delivery with COS/NO at 25% of its MIC): slowing or prevention
change of tobramycin MIC on parallel exposures ([3]; MRSA, tobramycin alone, serial passages): increases
MIC ([3]; Staphylococcus aureus, MRSA, read-out: MIC0): 2000 µg/mL (≈ 4280 µM)
Classification [4]: Synergistic
Log Difference in bacteria viability with vs without NO-pretreatment [4]: 3.00 log
changes in tobramycin-susceptibility of biofilm ([5]; NO-pretreatment lasting less than 4 h): Minimal changes
Classification [5, 7]: Synergistic
Log Difference in biofilm viability with vs without NO-pretreatment [5, 7]: 4.71 log
